Assay results as given in publication PMC4569013, “Massive Bioaccumulation and Self‐Assembly of Phenazine Compounds in Live Cells” (Advanced Science, 2015).

Columns and labels:
RAW264.7 macrophages [1] = experiment: Cell accumulation experiment, transmitted light microscopy of cellular staining pattern; format: cell-based; details: for Inferred uptake: inferred from staining pattern after 72 hour incubation; for Observed cellular staining pattern (Notes): live cells, 72 hour incubation, 5 × 10^−6 M (2.5 × 10^−6 M for I); for Staining in fixed cells: methanol-fixed cells incubated 72 h with compound (control); for Cellular staining relative to clofazimine: live macrophages, 72 h
Description: Cell Accumulation Experiments and Transmitted Light Microscopic Examination: […] After a 24 h incubation (37 °C, 5% CO2), cells were incubated with solution of clofazmine or its chemical derivatives (300 μL of 5 × 10^−6 m concentration; measured cell viability ranging from 85% to 97% for all compounds tested at this concentration; Figure 1) in DMEM (no phenol red; plus 1 × 10^−3 M sodium pyruvate and 5% FBS). For Compound “I,” 2.5 × 10^−6 M of compound solution in media was used for the RAW 264.7 macrophages incubation because of lower cell viability at higher concentrations (IC50 = (3.95 ± 0.11) × 10^−6 M). A solution of clofazmine or other chemical derivatives was made by a diluting stock solutions (2.5 × 10^−3 M in DMSO; 10 × 10^−3 M stock in DMSO were stored at −80 °C for further use) into DMEM with 5% FBS. […] The extracellular concentration of each compound in each well was maintained by daily replacement of the compound‐containing media. After 72 h of incubation with clofazmine or its derivatives, compound‐containing media were removed and cells were washed twice with media. Live cells in the chambered glasses were examined under inverted transmitted light microscopy (Nikon Eclipse Ti microscope) with a 40× objective and color camera. As a control experiment, fixed cells were also microscopically examined after incubation with the compounds. Cells were seeded on the chambered cover glasses at the density of 1.5 × 10^4 cells cm^−2 (RAW264.7 macrophages) or 2.5 × 10^4 cells cm^−2 (MDCK epithelial cells). After an overnight incubation (37 °C, 5% CO2), media was removed from the wells and cold methanol (−20 °C) was added to each well. After 30 s, remaining methanol was removed by washing with media with 5% FBS. Fixed cells were incubated (37 °C, 5% CO2) with clofazmine or derivatives (300 μL of 5 × 10^−6 M; 2.5 × 10^−6 M for I) in media with 5% FBS. After 72 h, fixed RAW264.7 or MDCK cells were washed with media and examined using the same transmitted microscopy conditions as the live cells.

RAW264.7 macrophages [2] = experiment: Confocal fluorescence microscopy, intracellular localization of inclusions; format: cell-based; details: 5 × 10^−6 M, 72 h, live cells
Description: (§1) Confocal Fluorescent Microscopy: A Nikon A1 confocal microscope was used for further investigation of live cells incubated with chiral pairs of compounds (T and U) and the parent compound, P. Since crystals or vesicular forms containing chemicals inside the cells incubated with Compound P, T, or U were fluorescent when viewed with the TRITC filter sets, intracellular distribution of these compounds in RAW264.7 or MDCK cells were visualized using a Nikon A1 confocal microscopy (Nikon Instruments Inc., Melville, NY) equipped with diode‐based lasers and a Nikon Apo 60×/1.4 NA oil immersion lens. Briefly, RAW264.7 macrophages or MDCK epithelial cells were seeded in the 8‐well Nunc Lab‐Tek II chambered (#1.5) cover glasses (Thermo Scientific, Pittsburgh, PA) at a density of 8 × 10^3 cells cm^−2 (RAW264.7 cells) or 1.5 × 10^4 cells cm^−2 (MDCK cells) and allowed to adhere overnight (37 °C, 5% CO2). Then, 5 × 10^−6 M of Compound “P” or the related isomers, “T” or “U” in DMEM with 5% FBS (300 μL) was added to the cells and the cells were incubated for 72 h (37 °C, 5% CO2). For live cell imaging, after the removal of media, cells were washed with HBSS buffer twice. Hoechst 33342 (Invitrogen, Carlsbad, CA) was used for staining cell nuclei and FM 1‐43 (Molecular Probes T35356, Invitrogen) for the plasma membrane. Cells were incubated with 300 μL of 1:1 (v/v) dye mixtures of 5 μg mL^−1 Hoechst 33342 and 7 × 10^−6 M FM 1‐43 in HBSS for 15 min at room temperature. Without fixative, the confocal imaging of the live cells was performed using lasers for DAPI (excitation/emission wavelength: 405 nm/450 ± 25 nm), FITC (488 nm/525 ± 25 nm), and TRITC (561 nm/596 ± 25 nm) channels. Z‐stack images of the cells were captured along the Z‐axis (interval, 1 μm) in three fluorescence channels and analyzed by using the Nikon NIS‐Elements 3.2 confocal software (Nikon Instruments Inc., Melville, NY). […]

MDCK epithelial cells [3] = experiment: as above; format: cell-based, Canine; details: 5 × 10^−6 M, 72 h, live cells
Description: as §1

RAW264.7 macrophages [4] = experiment: Linear diattenuation anisotropy microscopy (LC-PolScope) of intracellular inclusions; format: cell-based; details: 72 h, compared with clofazimine
Description: (§2) The optical design was built on a Nikon Eclipse Ti microscope equipped with the liquid crystal universal compensator consisting of a linear polarizer and a pair of liquid crystal devices. The LC compensator was part of the transillumination path and was used to illuminate the specimen with monochromatic, linearly polarized light of varying polarization orientation. There was no polarization analyzer present in the imaging path. Quantitative intensity images were recorded by a charge‐coupled device camera and a desktop computer calculated the average transmittance, the differential transmittance and the polarization orientation leading to maximum transmittance for each optically resolved picture element (pixel). Acquisition and processing steps were controlled using OpenPolScope plugins for the open source imaging programs ImageJ and Micro‐Manager (MMStudio version 1.4.15). With the combination of hardware and software, polarized light images were acquired at high sensitivity and high spatial resolution for measuring linear diattenuation.
(§3) Linear Diattenuation Microscopy Data Acquisition and Analysis: After RAW264.7 macrophages or MDCK epithelial cells were incubated with the compound in the chambered cover glasses for 72 h, at the same time of performing transmitted microscopic examination, cell specimens were examined under linear diattenuation microscopy using the Nikon Eclipse Ti microscope with 40×/0.75 NA objective and monochromatic light of two different center wavelengths, 546 and 623 nm (passband 30 nm). In the OpenPolScope software, Pol‐Acquisition and Pol‐Analyzer plugins (version 2.0) were used to capture, process, and analyze the attenuation images. Before imaging the samples, the setup was calibrated using a specially prepared slide featuring four small pieces of linear polarization filters. The transmission axes of the filters were oriented in steps of 45° providing a means to calibrate the LC universal compensator settings. After the calibration, a sample slide was inserted and first a sequence of polarized light images of a clear, fully transmitting sample area was recorded, followed by an image sequence featuring the cells under investigation. The images of the clear area were used to determine instrument factors which were needed for computing the average and the polarization dependent loss in transmittance in cellular components visible in the second image.10
(§4) Linear diattenuation is a material property that can occur in materials such as crystals, in which the light absorbing molecules are arranged with a preferred orientation. The molecular alignment creates principal axes in the material denoting polarization directions for which light is maximally and minimally transmitted. Diattenuation is the difference between maximal (T max) and minimal (T min) transmittance, divided by their sum (Equation (1)): (1) Diattenuation=Tmax‐Tmin/Tmax+Tmin
(§5) To simultaneously measure the attenuation of many crystals with arbitrary orientations, we developed algorithms based on four specimen images, each recorded using light of a different polarization orientation: 0°, 45°, 90°, and 135°.10 The four raw images were used to calculate the average and differential transmittance and the orientation of maximum transmittance in every resolved image pixel. To isolate and analyze quantitative data of the objects (crystals), the anisotropy or maximum transmittance axis orientation image file opened in ImageJ was inverted (Ctrl + Shift + I) and thresholded using ImageJ's default automatic method (“Binary” → “Convert to Mask”). By using the ImageJ's algorithm, “Analyze Particles,” data of anisotropy or maximum transmittance axis orientation of objects in images could be obtained automatically. Diattenuation ratios were calculated by dividing anisotropy at 623 nm by that at 546 nm.

MDCK epithelial cells [5] = experiment: as above; format: cell-based, Canine; details: 72 h, compared with clofazimine
Description: as §2, §3, §4, §5

RAW264.7 macrophages [6] = experiment: Cell associated mass measurements (bioaccumulation, pmole/cell); format: cell-based; details: 72 h incubation, normalized by number of cells
Description: Cell Associated Mass Measurements: […] After an overnight incubation (37 °C, 5% CO2), cells were incubated with 100 μL of the media (DMEM with 5% FBS) containing 5 × 10^−6 M clofazmine or its chemical derivatives (2.5 × 10^−6 M of Compound “I”). Media containing each compound was replaced every day during the 72 h incubation. After the incubation, media was removed and cells were washed with Hank's balanced salt solution (HBSS) buffer (No. 14025; Invitrogen) twice. RAW264.7 macrophage cells in buffer were scraped and MDCK epithelial cells were exposed to Trypsin‐EDTA solution for detachment from the plates for cell number counting and quantification of cell‐associated masses. After centrifugation (650 × g), supernatant was removed and cell pellets were resuspended in 0.1 M citric acid/0.1 M trisodium citrate buffer (pH 5) for cell counting as previously reported.7 Equal numbers of cells in 100 μL in buffer were transferred to 96 well plates and 100 μL of detergent (ATCC, 30‐1010K) was added into wells for cell lysis. Chemical absorbance from each well was measured by the UV–vis microplate reader (Synergy 2, BioTek Instruments, Winooski, VT) at 490 nm wavelength and cell‐associated mass of each compound was calculated by a standard curve generated separately using the same media and presented as pmole/cell by normalizing the amount of chemical in each cell population sample by the number of cells in each sample.

SMILES	Inferred uptake (RAW264.7 macrophages [1])	Observed cellular staining pattern (Notes) (RAW264.7 macrophages [1])	Staining in fixed cells (RAW264.7 macrophages [1])	Intracellular localization of compound (fluorescence, TRITC channel) (RAW264.7 macrophages [2])	Intracellular localization of compound (fluorescence, TRITC channel) (MDCK epithelial cells [3])	Cellular staining relative to clofazimine (RAW264.7 macrophages [1])	Diattenuation anisotropy of intracellular inclusions (RAW264.7 macrophages [4])	Diattenuation anisotropy of intracellular inclusions (MDCK epithelial cells [5])	Accumulation in macrophages (RAW264.7 macrophages [6])
CC(CN=c1cc2n(-c3ccc(Cl)cc3)c3ccccc3nc-2cc1Nc1ccc(Cl)cc1)c1ccccc1 (stereo not shown) [Compound T]	Moderate	Faint orange perinuclear vesicles are present in live cells	Staining not observed in fixed cells	localized at the periphery of the cell nuclei	localized at the periphery of the cell nuclei	–	–	–	–
Oc1ccc(CCN=c2cc3n(-c4ccc(Cl)cc4)c4ccccc4nc-3cc2Nc2ccc(Cl)cc2)cc1 [Q]	Excellent	Purple-black dense cytoplasmic inclusions in live cells	absent in fixed cells	–	–	more prominent staining patterns	higher diattenuation anisotropy	higher diattenuation anisotropy	greatest accumulation
C[C@H](N=c1cc2n(-c3ccc(Cl)cc3)c3ccccc3nc-2cc1Nc1ccc(Cl)cc1)c1ccccc1 [R]	Good	Orange-brown staining pattern associated with perinuclear cytoplasmic vesicles in live cells	No staining found in Fixed cells	–	–	–	did not yield a measurable, diattenuation anisotropy signal	did not yield a measurable, diattenuation anisotropy signal	–
CC(C)C(CO)N=c1cc2n(-c3ccc(Cl)cc3)c3ccccc3nc-2cc1Nc1ccc(Cl)cc1 (stereo not shown) [V]	Good	Brown crystal-like inclusions appeared in live cells	Staining not observed in fixed cells	–	–	prominent cellular staining	even higher anisotropy	only in macrophages	greatest accumulation
CC(C)[C@H](CO)N=c1cc2n(-c3ccc(Cl)cc3)c3ccccc3nc-2cc1Nc1ccc(Cl)cc1 [W]	Good	Brown crystal-like inclusions are shown in live cells	absent in fixed cells	–	–	prominent cellular staining	even higher anisotropy	only in macrophages	greatest accumulation
